Assay results published in patent publication US10561611B2, “Combination liposomal pharmaceutical formulations” (Cureport, Inc., priority 2015, dated 2020).

Assay: in vivo
Details: male, CD-1, mouse, iv
Experimental: Male CD-1 mice ranging from 20-25 g body weight were split up into groups of three. Each mouse was administered with a single dose of CPT319A or CPT307A at 5 mg/kg DXR by intravenous (IV) injection through the tail vein. A non-liposomal combination of DXR was used as the control. Blood samples were collected at 0.167, 1, 3, 8, 24, and 48 h after the injection. DXR plasma concentration was determined by liquid chromatography-tandem mass spectrometry (LC-MS-MS).

In the case of `COc1cccc2c1C(=O)c1c(O)c3c(c(O)c1C2=O)C[C@@](O)(C(=O)CO)C[C@@H]3O[C@H]1C[C@H](N)[C@H](O)[C@H](C)O1` [Naked DXR, doxorubicin], the AUC is reported as 688 ng·h/mL and the AUC (5 mg/kg) is reported as 688 ng·h/mL.
